# Experiment: Mouse single administration toxicity test
# Assay type: in vivo, Balb/C mice
# Settings: 3 mg/kg single intravenous administration, observation period of 2 weeks
# Experimental: (Test methods) The compounds of the invention were administered by single intravenous administration to Balb/C mice, and the presence of mortal case during the observation period of 2 weeks was evaluated.
row,Structure (SMILES),presence of mortal case
1,"COCCNC1=C(N(Cc2ccncc2)C(C)=O)C(=O)c2ccccc2C1=O [Example 4, N-[3-(2-methoxyethyl)amino-1,4-dihydro-1,4-dioxo-2-naphthalenyl]-N-(4-pyridylmethyl)acetamide]",Mortal case was not found
2,"COCC[n+]1c2c(n(Cc3ccc(Cl)nc3)c1C)C(=O)c1ccccc1C2=O.[Cl-] [Example 9, 1-[(6-chloro-3-pyridyl)methyl]-3-(2-methoxyethyl)-2-methyl-4,9-dioxo-4,9-dihydro-1H-naphtho[2,3-d]imidazol-3-ium chloride]",Mortal case was not found
3,"COCCN(C(C)=O)C1=C(NCc2cccnc2)C(=O)c2ccccc2C1=O [Example 35, N-(2-methoxyethyl)-N-[3-(3-pyridylmethyl)amino-1,4-dihydro-1,4-dioxo-2-naphthalenyl]acetamide]",Mortal case was not found
4,"COCCN(C(C)=O)C1=C(NCc2ccncc2)C(=O)c2ccccc2C1=O [Example 37, N-(2-methoxyethyl)-N-[3-(4-pyridylmethyl)amino-1,4-dihydro-1,4-dioxo-2-naphthalenyl]acetamide]",Mortal case was not found
5,"COCCn1c2c([n+](CCOC)c1C)C(=O)c1ccccc1C2=O [Example 148, 1,3-bis(2-methoxyethyl)-2-methyl-4,9-dioxo-4,9-dihydro-1H-naphtho[2,3-d]imidazol-3-ium]",Mortal case was not found
6,"COCC[n+]1c2c(n(Cc3cnccn3)c1C)C(=O)c1ccccc1C2=O [Example 154, 3-(2-methoxyethyl)-2-methyl-4,9-dioxo-1-(2-pyrazinylmethyl)-4,9-dihydro-1H-naphtho[2,3-d]imidazol-3-ium]",Mortal case was not found
7,"COCCn1c2c([n+](Cc3cccnc3)c1C)C(=O)c1ccccc1C2=O [Example 180, 1-(2-methoxyethyl)-2-methyl-4,9-dioxo-3-(3-pyridylmethyl)-4,9-dihydro-1H-naphtho[2,3-d]imidazol-3-ium]",Mortal case was not found
8,"COCCn1c2c([n+](Cc3ccncc3)c1C)C(=O)c1ccccc1C2=O.Cl.[Cl-] [Example 182, 1-(2-methoxyethyl)-2-methyl-3-(4-pyridylmethyl)-4,9-dihydro-4,9-dioxo-1H-naphtho[2,3-d]imidazol-3-ium chloride monohydrochloride]",Mortal case was not found
9,"COCC[n+]1c2c(n(Cc3cccnc3Cl)c1C)C(=O)c1ccccc1C2=O [Example 184, 1-[(2-chloro-3-pyridyl)methyl]-3-(2-methoxyethyl)-2-methyl-4,9-dioxo-4,9-dihydro-1H-naphtho[2,3-d]imidazol-3-ium]",Mortal case was not found
10,"COCC[n+]1c2c(n(Cc3ccnc(O)c3)c1C)C(=O)c1ccccc1C2=O [Example 185, 1-[(2-hydroxy-4-pyridyl)methyl]-3-(2-methoxyethyl)-2-methyl-4,9-dioxo-4,9-dihydro-1H-naphtho[2,3-d]imidazol-3-ium]",Mortal case was not found
11,"COCC[n+]1c2c(n(Cc3ccc(OC)nc3)c1C)C(=O)c1ccccc1C2=O [Example 186, 3-(2-methoxyethyl)-1-[(6-methoxy-3-pyridyl)methyl]-2-methyl-4,9-dioxo-4,9-dihydro-1H-naphtho[2,3-d]imidazol-3-ium]",Mortal case was not found
12,"COCC[n+]1c2c(n(Cc3ccnc(Cl)c3)c1C)C(=O)c1ccccc1C2=O [Example 192, 1-[(2-chloro-4-pyridyl)methyl]-3-(2-methoxyethyl)-2-methyl-4,9-dioxo-4,9-dihydro-1H-naphtho[2,3-d]imidazol-3-ium]",Mortal case was not found
13,"COCC[n+]1c2c(n(Cc3ccc(Cl)cc3)c1C)C(=O)c1ccccc1C2=O [Example 197, 1-(4-chlorobenzyl)-3-(2-methoxyethyl)-2-methyl-4,9-dioxo-4,9-dihydro-1H-naphtho[2,3-d]imidazol-3-ium]",Mortal case was not found
14,"Cn1c2c([n+](C)c1CCl)C(=O)c1ccccc1C2=O [KP-1, reference compound]",all of respective 2 cases died
15,"CCn1c2c([n+](CC)c1C)C(=O)c1ccccc1C2=O [KP-3, reference compound]",all of respective 2 cases died

# Source: US6734203B2, “Fused imidazolium derivatives” (priority 2000, dated 2004)
